The results in this text go back to patent US10065990B2, “Cyclic peptide compound, and preparation method, pharmaceutical composition and use thereof” (HANGZHOU GUANYU BIO-MEDICAL CO., LTD, priority 2013, dated 2018).

Assay [1] addresses T1, HDAC7 (Homo sapiens, UniProt Q8WUI4).
T1 sequence (Q8WUI4 1-952): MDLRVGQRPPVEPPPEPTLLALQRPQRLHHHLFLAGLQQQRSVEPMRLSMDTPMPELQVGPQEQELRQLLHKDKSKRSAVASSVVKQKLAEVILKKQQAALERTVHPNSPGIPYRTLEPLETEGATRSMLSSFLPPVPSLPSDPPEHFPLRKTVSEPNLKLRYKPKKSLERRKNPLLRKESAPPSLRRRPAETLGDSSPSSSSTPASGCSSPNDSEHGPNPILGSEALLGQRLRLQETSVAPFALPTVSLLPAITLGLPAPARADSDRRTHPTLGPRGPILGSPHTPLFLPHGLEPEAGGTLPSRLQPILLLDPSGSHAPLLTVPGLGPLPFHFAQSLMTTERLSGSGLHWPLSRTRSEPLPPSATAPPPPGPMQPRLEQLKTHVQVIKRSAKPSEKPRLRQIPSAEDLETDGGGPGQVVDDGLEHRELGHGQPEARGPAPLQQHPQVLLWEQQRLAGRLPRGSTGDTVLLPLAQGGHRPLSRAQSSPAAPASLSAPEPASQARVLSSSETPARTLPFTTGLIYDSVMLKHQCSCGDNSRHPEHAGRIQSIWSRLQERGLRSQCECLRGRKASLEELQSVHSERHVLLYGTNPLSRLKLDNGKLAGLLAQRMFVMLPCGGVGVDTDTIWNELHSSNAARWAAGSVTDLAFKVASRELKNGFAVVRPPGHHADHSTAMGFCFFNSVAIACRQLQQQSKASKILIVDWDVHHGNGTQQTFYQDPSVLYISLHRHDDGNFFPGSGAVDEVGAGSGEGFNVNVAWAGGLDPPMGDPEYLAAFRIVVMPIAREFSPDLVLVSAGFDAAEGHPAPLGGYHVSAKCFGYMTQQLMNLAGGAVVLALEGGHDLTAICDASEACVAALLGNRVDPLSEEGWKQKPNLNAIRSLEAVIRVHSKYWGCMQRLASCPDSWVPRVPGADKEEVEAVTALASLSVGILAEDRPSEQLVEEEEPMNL
Kind of assay: HDAC biochemical activity measurement (fluorescent substrate deacetylation).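 Further: fluorogenic deacetylation assay using acetyl-lysine substrate at 20 µM, enzyme and compound incubated 30 min at 37 °C, then developer added, fluorescence read at 360/460 nm.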 The settings on record: HDAC7; 37° C. 30 minutes.

Assay [2] concerns A549 (human lung cancer cells). In words: MTT cancer cell growth inhibition. The assay is classed as cell-based. The settings on record: Homo sapiens, A549, 72 h, MTT, 72 hours incubation, read-out: GI50 A54. The gist of the method: (§1)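 Tumour cells in 10% FBS-supplemented DMEM or RPMI 1640 are plated at 1500 per well, dosed next day with compound (10^−5 through 10^−10 M, final) and kept 72 h. MTT is added for 4 h; dissolved formazan is measured at 570 nm and GI50 determined.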

Assay [3] concerns BGC-823 (human gastric cancer cells). Kind of assay: MTT cancer cell growth inhibition. The settings on record: Homo sapiens, BGC-823, 72 h, MTT, 72 hours incubation, read-out: GI50 BG. Format: cell-based. The gist of the method: as §1
Assay [4] deals with Bel-7402 (human hepatoma cells). Kind of assay: MTT cancer cell growth inhibition. The conditions noted are these: Homo sapiens, Bel-7402, 72 h, MTT, 72 hours incubation, Bel-7402 cells; read-out: GI50 Bel-7402. Format: cell-based. The gist of the method:
as §1

For assay [5], the system named is DU145 (human prostate cancer cells). In words: MTT cancer cell growth inhibition. Format: cell-based. The conditions noted are these: Homo sapiens, DU-145, 72 h, MTT, 72 hours incubation, read-out: GI50 Du1. In short, it runs like this:
as §1

Assay [6] relates to H1975 (non-small cell lung adenocarcinoma). Kind of assay: MTT cancer cell growth inhibition. The conditions noted are these: Homo sapiens, NCI-H1975, 72 h, MTT, 72 hours incubation, H1975 cells; read-out: GI50 H1975. Format: cell-based. In short, it runs like this: as §1
Assay [7] has as its system HCC827 (human non-small cell lung cancer cells). In words: MTT cancer cell growth inhibition. The assay is classed as cell-based. The conditions noted are these: Homo sapiens, HCC827, 72 h, MTT, 72 hours incubation, HCC827 cells; read-out: GI50 HCC827. The gist of the method: as §1
Assay [8] has as its system HT1080 (human fibrosarcoma cells). Kind of assay: MTT cancer cell growth inhibition. The assay is classed as cell-based. The settings on record: Homo sapiens, HT-1080, 72 h, MTT, 72 hours incubation, read-out: GI50 HT1. In short, it runs like this:
as §1

Assay [9] concerns Hela (human cervical cancer cells). Kind of assay: MTT cancer cell growth inhibition. Format: cell-based. The conditions noted are these: Homo sapiens, HeLa, 72 h, MTT, 72 hours incubation, read-out: GI50 Hela. In short, it runs like this:
as §1

In assay [10] the test system is Huh-7 (human hepatoma cells). Kind of assay: MTT cancer cell growth inhibition. Format: cell-based. The settings on record: Homo sapiens, Huh-7, 72 h, MTT, 72 hours incubation, Huh-7 cells; read-out: GI50 Huh-7. The gist of the method:
as §1

The subject of assay [11] is K562 (human leukemia cells). In words: MTT cancer cell growth inhibition. The assay is classed as cell-based. The conditions noted are these: Homo sapiens, K562, 72 h, MTT, 72 hours incubation, K562 cells; read-out: GI50 K562. In short, it runs like this: as §1
Assay [12] deals with KBM-5 (human chronic myelogenous leukemia). Kind of assay: MTT cancer cell growth inhibition. The assay is classed as cell-based. The conditions noted are these: Homo sapiens, KBM5, 72 h, MTT, 72 hours incubation, KBM-5 cells; read-out: GI50 KBM-5. The gist of the method:
as §1

The test system of assay [13] is KBM5-T315I (human chronic myelogenous leukemia). In words: MTT cancer cell growth inhibition. The assay is classed as cell-based. The conditions noted are these: Homo sapiens, 72 h, MTT, 72 hours incubation, KBM5-T315I cells; read-out: GI50 KBM5-T315I. In short, it runs like this: as §1
Assay [14] relates to MCF-7 (human breast cancer cells). Kind of assay: MTT cancer cell growth inhibition. The assay is classed as cell-based. The conditions noted are these: Homo sapiens, MCF7, 72 h, 72 hours incubation, read-out: GI50 MCF. The gist of the method:
as §1

Assay [15] has as its system MDA-MB-231 (breast cancer cells). In words: MTT cancer cell growth inhibition. Format: cell-based. The conditions noted are these: Homo sapiens, MDA-MB-231, 72 h, read-out: GI50 MDA-MB-231, MTT, 72 hours incubation, MDA-MB-231 cells. In short, it runs like this:
as §1

Assay [16] relates to MOLT-4 (human acute lymphoblastic leukemia cells). In words: MTT cancer cell growth inhibition. The conditions noted are these: Homo sapiens, MOLT-4, 72 h, MTT, 72 hours incubation, read-out: GI50 Mol. The assay is classed as cell-based. The gist of the method:
as §1

Assay [17] deals with N-87 (human gastric cancer cells). In words: MTT cancer cell growth inhibition. The settings on record: Homo sapiens, 72 h, MTT, 72 hours incubation, N-87 cells; read-out: GI50 N-87. The assay is classed as cell-based. The gist of the method: as §1
Assay [18] relates to PANC-1 (Pac-1, human pancreatic cancer cells). Kind of assay: MTT cancer cell growth inhibition. The assay is classed as cell-based. The conditions noted are these: Homo sapiens, PANC-1, 72 h, MTT, 72 hours incubation, read-out: GI50 PAN. The gist of the method:
as §1

Assay [19] relates to SGC-7901 (human gastric cancer cells). Kind of assay: MTT cancer cell growth inhibition. The settings on record: Homo sapiens, SGC-7901, 72 h, MTT, 72 hours incubation, SGC-7901 cells; read-out: GI50 SGC-7901. Format: cell-based. The gist of the method:
as §1

The subject of assay [20] is U937 (human leukemia cells). Kind of assay: MTT cancer cell growth inhibition. The conditions noted are these: Homo sapiens, U-937, 72 h, MTT, 72 hours incubation, read-out: GI50 U93. The assay is classed as cell-based. In short, it runs like this: as §1
For assay [21], the system named is lncap (prostate cancer cells). In words: MTT cancer cell growth inhibition. Format: cell-based. The conditions noted are these: Homo sapiens, LNCaP, 72 h, MTT, 72 hours incubation, read-out: GI50 lnca. The gist of the method: as §1

Where two headings read alike, the source gives them in different places.

As usually defined, the GI50 is the concentration giving 50% growth inhibition. Turning to `C/C=C1\NC(=O)c2nc(cc(SC)n2)CNC(=O)C[C@@H](/C=C/CCSC(C)=O)OC(=O)[C@H](C)NC1=O` [Compound 218], the “IC50 HDAC7” value in [1] is listed as “no activity”. Moreover, the GI50 was 30 nM in assay [2] (A549 cells); 60 nM in [3] (BGC-823 cells); 62 nM in assay [4]; 50 nM in [5] (DU145 cells); 38 nM in assay [6]; 37 nM in assay [7]. The GI50 amounted to 20 nM in assay [8] (HT1080 cells); 80 nM in [9] (Hela cells); 21 nM in assay [10]; 36 nM in assay [11]; 21 nM in [12]; 43 nM in [13]. Moreover, the GI50 worked out at 40 nM in assay [14] (MCF-7 cells); 27 nM in assay [15]; 90 nM in [16] (MOLT-4 cells); 65 nM in [17]; 50 nM in [18] (PANC-1 cells); 53 nM in [19]. The concentration for 50% growth inhibition (GI50) in assay [20] (U937 cells) turned out to be 60 nM; in assay [21] (lncap cells), 50 nM.

For the compound `C=C1NC(=O)c2cccc(n2)CNC(=O)C[C@@H](/C=C/CCSC(C)=O)OC(=O)[C@H](C)NC1=O` [Example 21], the “IC50 HDAC7” value in [1] was “no activity”. Besides, the GI50 in assay [2] was determined as 330 nM; in assay [3] it was 870 nM; in [4], 83 nM; in assay [5], 990 nM; in assay [6], 37 nM; in [7], 34 nM. In addition, the GI50 in [8] was 1050 nM; in [9], 400 nM; in [10], 84 nM; in [11] it was 25 nM; in [12], 73 nM; in assay [13], 27 nM. For the same compound, the GI50 in assay [14] is 100 nM; in assay [15] it was 98 nM; in [16], 1010 nM; in assay [17], 35 nM; in assay [18], 1170 nM; in assay [19] it was 24 nM. Moreover, the results for the GI50 in assay [20] and in assay [21] were 5110 nM and 1210 nM, respectively.

Take `C/C=C1\NC(=O)c2cc(F)cc(n2)CNC(=O)C[C@@H](/C=C/CCS)OC(=O)[C@H](C(C)C)NC1=O` [Compound 107]: the “IC50 HDAC7” value in assay [1] is “no activity”. The GI50 stood at 40 nM in assay [2]; 30 nM in assay [3]; 53 nM in assay [4]; 30 nM in assay [5]; 57 nM in assay [6]; 13 nM in assay [7]. Also, the GI50 in assay [8] is 80 nM; in assay [9], 60 nM; in [10], 24 nM; in [11], 38 nM; in [12], 72 nM; in [13], 41 nM. The GI50 in assay [14] amounted to 30 nM; in assay [15] it was 27 nM; in assay [16], 30 nM; in assay [17] it was 35 nM; in assay [18], 80 nM; in [19], 27 nM. Besides, the GI50 in assay [20] and in assay [21] was 30 nM each time.

For the compound `C/C=C1\NC(=O)c2ccc(SC)c(n2)CCNC(=O)C[C@@H](/C=C/CCSC(C)=O)OC(=O)[C@H](C(C)C)NC1=O` [Compound 225], the “IC50 HDAC7” value in assay [1] is on record as “no activity”. For the same compound, the GI50 amounted to 40 nM in [2] (A549 cells); 40 nM in [3] (BGC-823 cells); 72 nM in [4]; 20 nM in assay [5] (DU145 cells); 29 nM in assay [6]; 13 nM in assay [7]. The GI50 in [8] (HT1080 cells) is 20 nM; in assay [9] (Hela cells), 70 nM; in assay [10], 59 nM; in assay [11] it was 81 nM; in assay [12], 33 nM; in assay [13], 38 nM. For the same compound, the GI50 stood at 30 nM in [14] (MCF-7 cells); 71 nM in [15]; 60 nM in assay [16] (MOLT-4 cells); 38 nM in assay [17]; 30 nM in [18] (PANC-1 cells); 41 nM in assay [19]. In addition, the GI50 in assay [20] (U937 cells) was 30 nM; in assay [21] (lncap cells), 20 nM.

With `C/C=C1\NC(=O)c2nc(ccc2SC)CCNC(=O)C[C@@H](/C=C/CCSC(C)=O)OC(=O)[C@H](C(C)C)NC1=O` [Compound 223], in assay [1], the “IC50 HDAC7” value is given as “no activity”. In addition, the GI50 is 20 nM in assay [2] (A549 cells); 30 nM in assay [3] (BGC-823 cells); 32 nM in assay [4]; 60 nM in assay [5] (DU145 cells); 19 nM in assay [6]; 27 nM in [7]. Besides, the GI50 in assay [8] (HT1080 cells) is 80 nM; in [9] (Hela cells), 50 nM; in assay [10], 54 nM; in [11], 55 nM; in assay [12], 53 nM; in assay [13] it was 28 nM. The GI50 was 40 nM in assay [14] (MCF-7 cells); 35 nM in [15]; 50 nM in [16] (MOLT-4 cells); 75 nM in assay [17]; 50 nM in assay [18] (PANC-1 cells); 96 nM in assay [19]. Further, the GI50 in assay [20] (U937 cells) is 20 nM; in assay [21] (lncap cells) it was 10 nM.
